Key:
Format in all cases: in vivo, human
[1] = Salivary cortisol awakening response; parameters: Cortisol Awakening Response (AUC) / Cortisol Awakening Response (AUC) Δ: unit not given here; settings: for Average Cortisol / Cortisol Awakening Response (AUC): mean ± SE; for Average Cortisol Δ / Average Cortisol Δ (%) / Cortisol Awakening Response (AUC) Δ / Cortisol Awakening Response (AUC) Δ (%): change baseline to W 8; for Average Cortisol ES (d) / Cortisol Awakening Response (AUC) ES (d): effect size
From the text: At baseline and after 4 and 8 weeks of the intervention, participants completed two testing sessions: (1) a morning assessment conducted after an overnight fast for assessment of body composition, metabolism, vascular measures and subjective factors: and (2) an afternoon assessment of muscular performance, conducted in the non-fasted state. For morning assessments, participants reported to the laboratory after abstention from eating, drinking, exercising and utilizing caffeine or nicotine for ≥8 hours. Participants were interviewed to confirm adherence to these pre-assessment restrictions. The actual abstention from exercise was ≥14 hours due to the scheduling of exercise sessions. Participants reported to the laboratory wearing athletic clothing, and all metal and accessories were removed from the body prior to testing. Each participant voided her bladder and provided a urine sample. Urine samples were assessed for urine specific gravity (USG) using a digital refractometer (PA201X-093. Misco, Solon, Ohio. USA). Additionally, a standard urinary HCG test was performed to confirm that each participant was not pregnant. Finally, urinary samples were frozen at −80° C. for assessment of urinary HMB content after study unblinding. After voiding, each participant's body mass (BM) and height were determined via digital scale with stadiometer (Seca 769, Hamburg, Germany). Blood draws were performed at Texas Tech University Student Health Services after an overnight fast, and participants completed at-home saliva collections for assessment of the cortisol awakening response (CAR).
Each participant was familiarized with the saliva collection procedures at the baseline visit. Saliva collection took place using the passive drool method, with allows for saliva to be transferred from the mouth to a small vial according to manufacturer recommendations (36). Three saliva samples during the baseline period for assessment of the cortisol awakening response (CAR; the characteristic increase in cortisol concentrations upon waking (37)). These samples were collected at the participant's home 0, 30 and 45 minutes after waking. The importance of collecting the saliva sample exactly as instructed was strongly emphasized to research participants. Participants were provided with reminder signs to place by the bedside and were instructed to set alarms for saliva collection timepoints. Upon obtaining the sample, each participant was instructed to place the vial in the freezer until it could be transported to the laboratory. Upon delivery to the lab, each vial of saliva was stored at −80° C. until shipment to a saliva testing facility for analysis (Salimetrics LLC, Carlsbad, Calif., USA). For the analysis, samples were thawed to room temperature, vortexed, and then centrifuged for 15 minutes at approximately 3,000 RPM (1,500×g) immediately before performing the assay. Samples were tested for salivary cortisol using a high sensitivity enzyme immunoassay (Cat. No. 1-3002). Sample test volume was 25 μl of saliva per determination. The assay has a lower limit of sensitivity of 0.007 μg/dL, a standard curve range from 0.012-3.0 μg/dL, and an average intra-assay coefficient of variation of 4.60%, and an average inter-assay coefficient of variation 6.00%, which meets the manufacturers' criteria for accuracy and repeatability in Salivary Bioscience. and exceeds the applicable NIH guidelines for Enhancing Reproducibility through Rigor and Transparency.

[2] = Countermovement vertical jump (jump height); settings: for Jump Height ES (d): Cohen's d baseline vs week 8; for Jump Height Δ (%): change baseline to week 8 relative to baseline; for Jump Height Δ: week 8 minus baseline
From the text: For the CMVJ tests, participants completed eight trials while wearing their own footwear. Approximately 30 seconds rest separated each trial. Ground reaction force (GRF) data were obtained during the CMVJ using two force platforms sampled at 1 kHz (OPT464508; Advanced Mechanical Technology, Inc., Watertown, Mass. USA). Participants stood motionless with each foot positioned on a force platform and their hands on their hips before initiating the CMVJ with a countermovement action using a self-selected depth and jumping with maximum effort to achieve the highest vertical displacement possible. No instructions were provided for the landing phase except to land with each foot contacting its respective force platform from take-off and to stop downward motion and return to a motionless standing position. The raw GRF data from the two force platforms were smoothed using a fourth order low pass Butterworth digital filter with a 30 Hz cutoff frequency. The smoothed GRF from the two force platforms was then summed along the vertical axis to obtain the vertical GRF acting at the body center of mass. The start of the CMVJ was defined as the time when bodyweight was reduced by 2.5% (29). Take-off was defined as the time when the summed vertical GRF decreased below a 20 N threshold (30). Jump time was then calculated as the time elapsed between the start of the CMVJ and take-off, expressed in units of seconds. Vertical jump height was calculated using the impulse-momentum relationship and expressed in units of meters.

[3] = Muscle thickness of elbow flexors and knee extensors via ultrasonography; settings: for MTEF ES (d) / MTKE ES (d): Cohen's d baseline vs week 8; for MTEF Δ (%) / MTKE Δ (%): change baseline to week 8 relative to baseline; for MTEF (cm) Week 8: muscle thickness elbow flexors; for MTEF (cm) Week 8 / MTKE (cm) Week 8: mean ± SE; for MTKE (cm) Week 8: muscle thickness knee extensors; for MTEF (cm) Δ / MTKE (cm) Δ: week 8 minus baseline
Description: In addition to whole-body composition estimates, muscle thickness of the elbow flexors (MTEF) and knee extensors (MTKE) was evaluated via ultrasonography (Logiq e, General Electric. Boston, Mass. USA) at baseline and study completion. […] These distances were measured while the participant was standing, and measurement distances at baseline were recorded and used at the final assessment. All assessments took place on the right side of the body. In the supine position, the participant's arm was abducted to ˜80° with the arm supported for elbow flexor measurements. For knee extensor measurements, a foam pad was placed beneath the knee to allow an ˜10° bend at the knee joint. For all assessments, transmission gel was generously applied to the marked measurement location, and minimal pressure was applied by the transducer in order to avoid tissue compression. Three single transverse images were taken at each location, with values averaged for analysis. The gain and depth of the transducer were kept consistent for all measurements at a given site. Ultrasound images were blinded for analysis and analyzed by a single blinded researcher using ImageJ (v. 1.52a; National Institutes of Health, USA). The reliability of the researcher analyzing ultrasound images was determined through blinded analysis of 28 randomly selected ultrasound images on two occasions. This exercise produced minimum differences (MD) of 0.07 cm for MTEF and 0.14 cm for MTKE.

With CC(C)(O)CC(=O)O [TRFHMB, β-hydroxy-β-methylbutyrate] the “Average Cortisol” value ([1]; ITT, Baseline) was 0.40 ± 0.07 µg/dL, the “Cortisol Awakening Response (AUC)” value ([1]; ITT, Baseline) was 17.5 ± 3.2 and the “Average Cortisol” value ([1]; ITT, W 8) was 0.39 ± 0.98 µg/dL. For the same compound, the “Cortisol Awakening Response (AUC)” value ([1]; ITT, W 8) was 16.9 ± 4.0, the “Average Cortisol Δ” value ([1]; ITT) was -0.01 µg/dL and the “Average Cortisol Δ (%)” value ([1]; ITT) was −3%. For the same compound, the “Cortisol Awakening Response (AUC) Δ” value ([1]; ITT) was −0.6, the “Cortisol Awakening Response (AUC) Δ (%)” value ([1]; ITT) was −3% and the “Average Cortisol ES (d)” value ([1]; ITT) was −0.04. The “Cortisol Awakening Response (AUC) ES (d)” value ([1]; ITT) was −0.05, the “Average Cortisol” value ([1]; PP, Baseline) was 0.34 ± 0.07 µg/dL and the “Cortisol Awakening Response (AUC)” value ([1]; PP, Baseline) was 14.0 ± 3.3. The “Average Cortisol” value ([1]; PP, W 8) was 0.42 ± 0.1 µg/dL, the “Cortisol Awakening Response (AUC)” value ([1]; PP, W 8) was 18.2 ± 4.7 and the “Average Cortisol Δ” value ([1]; PP) was 0.1 µg/dL. The “Average Cortisol Δ (%)” value ([1]; PP) was 24%, the “Cortisol Awakening Response (AUC) Δ” value ([1]; PP) was 4.2 and the “Cortisol Awakening Response (AUC) Δ (%)” value ([1]; PP) was 30%. For the same compound, the “Average Cortisol ES (d)” value ([1]; PP) was 0.93, the “Cortisol Awakening Response (AUC) ES (d)” value ([1]; PP) was 0.64 and the “Jump Height ES (d)” value ([2]; ITT analysis) was 0.65. For the same compound, the “Jump Height Δ (%)” value ([2]; ITT analysis) was 29%, the “Jump Height W 8” value ([2]; ITT analysis, week 8, mean ± SE, method b87 expresses jump height in meters) was 0.27 ± 0.03 and the “Jump Height Δ” value ([2]; ITT analysis) was 0.06. For the same compound, the “Jump Height ES (d)” value ([2]; PP analysis) was 0.21, the “Jump Height Δ (%)” value ([2]; PP analysis) was 9% and the “Jump Height Δ” value ([2]; PP analysis) was 0.02. For the same compound, the “MTEF ES (d)” value ([3]; ITT analysis) was 0.68, the “MTKE ES (d)” value ([3]; ITT analysis) was 0.33 and the “MTEF Δ (%)” value ([3]; ITT analysis) was 8%. For the same compound, the “MTKE Δ (%)” value ([3]; ITT analysis) was 5%, the “MTEF (cm) Week 8” value ([3]; ITT analysis) was 2.96 ± 0.09 cm and the “MTKE (cm) Week 8” value ([3]; ITT analysis) was 4.33 ± 0.16 cm. For the same compound, the “MTEF (cm) Δ” value ([3]; ITT analysis) was 0.22 cm, the “MTKE (cm) Δ” value ([3]; ITT analysis) was 0.19 cm and the “MTEF ES (d)” value ([3]; PP analysis) was 0.86. The “MTKE ES (d)” value ([3]; PP analysis) was 0.31, the “MTEF Δ (%)” value ([3]; PP analysis) was 9% and the “MTKE Δ (%)” value ([3]; PP analysis) was 4%. For the same compound, the “MTEF (cm) Week 8” value ([3]; PP analysis) was 2.97 ± 0.10 cm, the “MTKE (cm) Week 8” value ([3]; PP analysis) was 4.44 ± 0.20 cm and the “MTEF (cm) Δ” value ([3]; PP analysis) was 0.24 cm. For the same compound, the “MTKE (cm) Δ” value ([3]; PP analysis) was 0.17 cm.

From patent US20190209501A1, “COMPOSITIONS AND METHODS OF USE OF BETA-HYDROXY-BETA-METHYLBUTYRATE (HMB) […] IN[…]” (Texas Tech University Office of Research Commercialization, priority 2018, published 2019)
